# How the values were obtained:
# Assay type in all cases: functional, Salmonella enterica subsp. enterica serovar Typhimurium
# [1] = test system: Salmonella typhimurium; test: Antimicrobial activity against Salmonella enterica serovar Typhimurium BN18/71 harboring GyrA G81C, acrR mutant genes by agar doubling dilution method
# [2] = test system: Salmonella typhimurium; test: Antimicrobial activity against multidrug-resistant Salmonella enterica serovar Typhimurium 102SA00 harboring plasmid encoded RamR gene, GyrA S83A and D87N, GyrB S464F and ParC S80I mutant genes by agar doubling dilution method
# [3] = test system: Salmonella typhimurium; test: Antimicrobial activity against Salmonella enterica serovar Typhimurium BN18 by agar doubling dilution method
# [4] = test system: Salmonella typhimurium; test: Antimicrobial activity against multidrug-resistant Salmonella enterica serovar Typhimurium 543SA98 harboring plasmid encoded RamR gene, GyrA S83Y mutant gene by agar doubling dilution method
# [5] = test system: Salmonella typhimurium; test: Antimicrobial activity against multidrug-resistant Salmonella enterica serovar Typhimurium BN9181 harboring plasmid encoded RamR gene by agar doubling dilution method
# [6] = test system: Salmonella typhimurium; test: Antimicrobial activity against ramA::kan-deficient Salmonella enterica serovar Typhimurium S/921495 by agar doubling dilution method
# [7] = test system: Salmonella typhimurium; test: Antimicrobial activity against Salmonella enterica serovar Typhimurium S/921495 by agar doubling dilution method
# [8] = test system: Salmonella typhimurium; test: Antimicrobial activity against ramA::kan-deficient Salmonella enterica serovar Typhimurium BN9181 by agar doubling dilution method
# [9] = test system: Salmonella typhimurium; test: Antimicrobial activity against Salmonella enterica serovar Typhimurium BN18/41 harboring plasmid encoded RamR gene, GyrA G81C,acrR mutant genes by agar doubling dilution method
# [10] = test system: Salmonella typhimurium; test: Antimicrobial activity against multidrug-resistant Salmonella enterica serovar Typhimurium BN9945 harboring plasmid encoded RamR gene by agar doubling dilution method
# [11] = test system: Salmonella typhimurium; test: Antimicrobial activity against multidrug-resistant Salmonella enterica serovar Typhimurium 902SA92 harboring plasmid encoded RamR gene, GyrA S83A and D87N, GyrB S464F and ParC S80I mutant genes by agar doubling dilution method
# [12] = test system: Salmonella typhimurium; test: Antimicrobial activity against Salmonella enterica serovar Typhimurium S/921495 harboring plasmid encoded RamR gene by agar doubling dilution method
# [13] = test system: Salmonella typhimurium; test: Antimicrobial activity against multidrug-resistant Salmonella enterica serovar Typhimurium 102SA00 harboring GyrA S83A and D87N, GyrB S464F and ParC S80I mutant genes by agar doubling dilution method
# [14] = test system: Salmonella typhimurium; test: Antimicrobial activity against Salmonella enterica serovar Typhimurium BN18/71 harboring plasmid encoded RamR gene, GyrA G81C,acrR mutant genes by agar doubling dilution method
# [15] = test system: Salmonella typhimurium; test: Antimicrobial activity against ramR-deficient Salmonella enterica serovar Typhimurium S/921495 harboring plasmid encoded RamR gene by agar doubling dilution method
# [16] = test system: Salmonella typhimurium; test: Antimicrobial activity against marR::kan-deficient Salmonella enterica serovar Typhimurium S/921495 by agar doubling dilution method
# [17] = test system: Salmonella typhimurium; test: Antimicrobial activity against multidrug-resistant Salmonella enterica serovar Typhimurium BN10055 harboring GyrA S83Y mutant gene by agar doubling dilution method
# [18] = test system: Salmonella typhimurium; test: Antimicrobial activity against multidrug-resistant Salmonella enterica serovar Typhimurium BN9181 by agar doubling dilution method
# [19] = test system: Salmonella typhimurium; test: Antimicrobial activity against marR-deficient Salmonella enterica serovar Typhimurium S/921495 by agar doubling dilution method
# [20] = test system: Salmonella typhimurium; test: Antimicrobial activity against Salmonella enterica serovar Typhimurium BN18/21 harboring plasmid encoded RamR gene by agar doubling dilution method
# [21] = test system: Salmonella typhimurium; test: Antimicrobial activity against Salmonella enterica serovar Typhimurium BN18/41 harboring GyrA G81C,acrR mutant genes by agar doubling dilution method
# [22] = test system: Salmonella typhimurium; test: Antimicrobial activity against ramR::kan-deficient Salmonella enterica serovar Typhimurium S/921495 by agar doubling dilution method
# [23] = test system: Salmonella typhimurium; test: Antimicrobial activity against Salmonella enterica serovar Typhimurium BN18 harboring plasmid encoded RamR gene by agar doubling dilution method
# [24] = test system: Salmonella typhimurium; test: Antimicrobial activity against ramR-deficient Salmonella enterica serovar Typhimurium S/921495 by agar doubling dilution method
# [25] = test system: Salmonella typhimurium; test: Antimicrobial activity against multidrug-resistant Salmonella enterica serovar Typhimurium 543SA98 harboring GyrA […] mutant gene by agar doubling dilution method
# [26] = test system: Salmonella typhimurium; test: Antimicrobial activity against multidrug-resistant Salmonella enterica serovar Typhimurium BN9945 by agar doubling dilution method
# [27] = test system: Salmonella typhimurium; test: Antimicrobial activity against ramA::kan-deficient Salmonella enterica serovar Typhimurium 102SA00 harboring GyrA S83A and D87N, GyrB S464F and ParC S80I mutant genes by agar doubling dilution method
# [28] = test system: Salmonella typhimurium; test: Antimicrobial activity against Salmonella enterica serovar Typhimurium BN18/21 by agar doubling dilution method
# [29] = test system: Salmonella typhimurium; test: Antimicrobial activity against ramA::kan-deficient Salmonella enterica serovar Typhimurium BN18/71 harboring plasmid encoded RamR gene, GyrA G81C,acrR mutant genes by agar doubling dilution method
# [30] = test system: Salmonella typhimurium; test: Antimicrobial activity against ramA::kan-deficient Salmonella enterica serovar Typhimurium BN9945 by agar doubling dilution method
# [31] = test system: Salmonella typhimurium; test: Antimicrobial activity against ramA::kan-deficient Salmonella enterica serovar Typhimurium 902SA92 harboring GyrA S83A and D87N, GyrB S464F and ParC S80I mutant genes by agar doubling dilution method
# [32] = test system: Salmonella typhimurium; test: Antimicrobial activity against multidrug-resistant Salmonella enterica serovar Typhimurium BN10055 harboring plasmid encoded RamR gene, GyrA S83Y mutant gene by agar doubling dilution method
# [33] = test system: Salmonella typhimurium; test: Antimicrobial activity against ramA::kan-deficient Salmonella enterica serovar Typhimurium 543SA98 harboring GyrA S83Y mutant gene by agar doubling dilution method
# [34] = test system: Salmonella typhimurium; test: Antimicrobial activity against ramA::kan-deficient Salmonella enterica serovar Typhimurium BN18/21 by agar doubling dilution method
# [35] = test system: Salmonella typhimurium; test: Antimicrobial activity against ramA::kan-deficient Salmonella enterica serovar Typhimurium BN10055 harboring GyrA S83Y mutant gene by agar doubling dilution method
# [36] = test system: Salmonella typhimurium; test: Antimicrobial activity against ramA::kan-deficient Salmonella enterica serovar Typhimurium BN18/41 harboring plasmid encoded RamR gene, GyrA G81C,acrR mutant genes by agar doubling dilution method
# [37] = test system: Salmonella typhimurium; test: Antimicrobial activity against multidrug-resistant Salmonella enterica serovar Typhimurium 902SA92 harboring GyrA S83A and D87N, GyrB S464F and ParC S80I mutant genes by agar doubling dilution method
# [38] = test system: Salmonella typhimurium; test: Antimicrobial activity against marA::kan-deficient Salmonella enterica serovar Typhimurium S/921495 by agar doubling dilution method
# [39] = test system: Salmonella typhimurium; test: Antimicrobial activity against ramA::kan-deficient Salmonella enterica serovar Typhimurium BN18 by agar doubling dilution method
# [40] = test system: Salmonella typhimurium; test: Antimicrobial activity against soxR::kan-deficient Salmonella enterica serovar Typhimurium S/921495 by agar doubling dilution method
# [41] = test system: Salmonella typhimurium; test: Antimicrobial activity against soxS::kan-deficient Salmonella enterica serovar Typhimurium S/921495 by agar doubling dilution method
compound,measurement,setting,value
CCn1cc(C(=O)O)c(=O)c2ccc(C)nc21 [NALIDIXIC ACID],MIC,[1],> 4100 µg/mL
same,MIC,[2],4100 µg/mL
same,MIC,[3],4 µg/mL
same,MIC,[4],512 µg/mL
same,MIC,[5],4 µg/mL
same,MIC,[6],4 µg/mL
same,MIC,[7],4 µg/mL
same,MIC,[8],4 µg/mL
same,MIC,[9],4100 µg/mL
same,MIC,[10],512 µg/mL
same,MIC,[11],4100 µg/mL
same,MIC,[12],4 µg/mL
same,MIC,[13],> 4100 µg/mL
same,MIC,[14],4100 µg/mL
same,MIC,[15],4 µg/mL
same,MIC,[16],2 µg/mL
same,MIC,[17],> 4100 µg/mL
same,MIC,[18],4 µg/mL
same,MIC,[19],2 µg/mL
same,MIC,[20],8 µg/mL
same,MIC,[21],> 4100 µg/mL
same,MIC,[22],16 µg/mL
same,MIC,[23],4 µg/mL
same,MIC,[24],16 µg/mL
same,MIC,[25],1020 µg/mL
same,MIC,[26],1020 µg/mL
same,MIC,[27],4100 µg/mL
same,MIC,[28],64 µg/mL
same,MIC,[29],4100 µg/mL
same,MIC,[30],512 µg/mL
same,MIC,[31],4100 µg/mL
same,MIC,[32],> 4100 µg/mL
same,MIC,[33],512 µg/mL
same,MIC,[34],8 µg/mL
same,MIC,[35],512 µg/mL
same,MIC,[36],4100 µg/mL
same,MIC,[37],> 4100 µg/mL
same,MIC,[38],4 µg/mL
same,MIC,[39],4 µg/mL
same,MIC,[40],2 µg/mL
same,MIC,[41],4 µg/mL
CN(C)[C@@H]1C(O)=C(C(N)=O)C(=O)[C@@]2(O)C(O)=C3C(=O)c4c(O)cccc4[C@@](C)(O)[C@H]3C[C@@H]12 [TETRACYCLINE],MIC,[1],16 µg/mL
same,MIC,[2],256 µg/mL
same,MIC,[3],1 µg/mL
same,MIC,[4],32 µg/mL
same,MIC,[5],32 µg/mL
same,MIC,[6],1 µg/mL
same,MIC,[7],1 µg/mL
same,MIC,[8],32 µg/mL
same,MIC,[9],2 µg/mL
same,MIC,[10],32 µg/mL
same,MIC,[11],256 µg/mL
same,MIC,[12],1 µg/mL
same,MIC,[13],256 µg/mL
same,MIC,[14],2 µg/mL
same,MIC,[15],1 µg/mL
same,MIC,[16],1 µg/mL
same,MIC,[17],256 µg/mL
same,MIC,[18],32 µg/mL
same,MIC,[19],1 µg/mL
same,MIC,[20],1 µg/mL
same,MIC,[21],8 µg/mL
same,MIC,[22],4 µg/mL
same,MIC,[23],1 µg/mL
same,MIC,[24],4 µg/mL
same,MIC,[25],128 µg/mL
same,MIC,[26],128 µg/mL
same,MIC,[27],256 µg/mL
same,MIC,[28],4 µg/mL
same,MIC,[29],2 µg/mL
same,MIC,[30],32 µg/mL
same,MIC,[31],256 µg/mL
same,MIC,[32],256 µg/mL
same,MIC,[33],32 µg/mL
same,MIC,[34],1 µg/mL
same,MIC,[35],64 µg/mL
same,MIC,[36],2 µg/mL
same,MIC,[37],256 µg/mL
same,MIC,[38],1 µg/mL
same,MIC,[39],1 µg/mL
same,MIC,[40],1 µg/mL
same,MIC,[41],1 µg/mL

# Source: ChEMBL document CHEMBL1671854, “ramR mutations involved in efflux-mediated multidrug resistance in Salmonella enterica serovar Typhimurium” (2008)
